Six compounds from US12723063B2, “GIPR-agonist compounds” (Eli Lilly and Company, priority 2019, dated 2026) can be followed below.

Common to all, as to assay: cAMP functional assay (HTRF) in HEK293 cells in presence of 0.1% casein
Type in all cases: cell-based
For orientation: TR-FRET usually uses a lanthanide donor and a delayed reading to cut background.

In experiment [1] the target is T1, human GLP-1 receptor (GLP-1R) (Homo sapiens, UniProt P43220).
T1 construct: expressed in transfected cells; host or cells: HEK293
T1 sequence (P43220 24-463): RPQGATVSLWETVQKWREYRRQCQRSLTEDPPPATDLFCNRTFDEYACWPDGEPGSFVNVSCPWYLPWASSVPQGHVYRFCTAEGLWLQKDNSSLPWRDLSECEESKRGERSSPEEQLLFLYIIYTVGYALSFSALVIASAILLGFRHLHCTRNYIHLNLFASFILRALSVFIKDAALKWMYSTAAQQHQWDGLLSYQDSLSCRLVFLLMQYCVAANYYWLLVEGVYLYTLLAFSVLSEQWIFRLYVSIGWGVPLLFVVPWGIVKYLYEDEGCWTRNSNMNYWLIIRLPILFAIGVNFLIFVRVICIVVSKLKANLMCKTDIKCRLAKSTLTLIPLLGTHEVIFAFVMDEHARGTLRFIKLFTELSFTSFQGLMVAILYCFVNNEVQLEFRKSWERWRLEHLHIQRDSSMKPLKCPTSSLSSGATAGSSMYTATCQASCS
As to conditions: HEK293 cells expressing human GLP-1R, geometric mean, read-out: hGLP1R cAMP Rel EC50 nM (SEM, n).

Experiment [2] deals with T2, human glucagon receptor (GcgR) (Homo sapiens, UniProt P47871).
T2 construct: expressed in transfected cells; host or cells: HEK293
T2 sequence (P47871 26-477): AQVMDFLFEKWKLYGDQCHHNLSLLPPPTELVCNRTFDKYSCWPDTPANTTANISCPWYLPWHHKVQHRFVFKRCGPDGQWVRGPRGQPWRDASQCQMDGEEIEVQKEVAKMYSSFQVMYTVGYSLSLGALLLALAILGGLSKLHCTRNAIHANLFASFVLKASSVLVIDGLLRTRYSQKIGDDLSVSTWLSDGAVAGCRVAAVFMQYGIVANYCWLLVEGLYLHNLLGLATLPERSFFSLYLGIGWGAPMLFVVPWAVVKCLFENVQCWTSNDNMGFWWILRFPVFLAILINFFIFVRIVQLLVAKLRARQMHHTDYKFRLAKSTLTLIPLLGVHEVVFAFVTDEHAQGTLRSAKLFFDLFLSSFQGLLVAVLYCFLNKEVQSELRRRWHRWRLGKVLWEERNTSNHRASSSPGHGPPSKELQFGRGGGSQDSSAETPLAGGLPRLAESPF
As to conditions: HEK293 cells expressing human GcgR, geometric mean, read-out: hGcgR cAMP Rel EC50 nM (SEM, n).

In experiment [3] the target is T3, human glucose-dependent insulinotropic peptide receptor (GIPR) (Homo sapiens, UniProt P48546).
T3 construct: expressed in transfected cells; host or cells: HEK293
T3 sequence (P48546 22-466): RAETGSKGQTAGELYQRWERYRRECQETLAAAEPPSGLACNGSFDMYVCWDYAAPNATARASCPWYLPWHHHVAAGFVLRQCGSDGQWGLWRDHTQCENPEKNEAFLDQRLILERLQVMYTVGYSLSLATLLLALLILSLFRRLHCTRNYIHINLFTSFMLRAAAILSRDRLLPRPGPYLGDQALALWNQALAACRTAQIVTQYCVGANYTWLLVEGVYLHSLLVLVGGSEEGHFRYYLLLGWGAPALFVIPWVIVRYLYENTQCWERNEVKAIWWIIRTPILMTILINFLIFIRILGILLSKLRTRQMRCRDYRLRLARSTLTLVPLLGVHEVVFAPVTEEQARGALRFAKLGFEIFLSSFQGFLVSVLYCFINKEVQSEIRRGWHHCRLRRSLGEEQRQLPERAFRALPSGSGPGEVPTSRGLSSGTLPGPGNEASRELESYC
As to conditions: HEK293 cells expressing human GIPR, geometric mean, read-out: hGIPR cAMP Rel EC50 nM (SEM, n).

*1 amine or outer side, *2 acyl side, *3 side chain or, on linkers, in order; H or OH if unused. Where a SMILES comes first, the peptide text is derived from it. Side-chain parts run from the residue outwards. [ ]: non-standard residue; d: D form. The star is where a group is joined. C20 diacid = O=C(O)CCCCCCCCCCCCCCCCCCC(=O)*; C18 diacid = O=C(O)CCCCCCCCCCCCCCCCC(=O)*; γGlu = O=C(O)[C@H](CCC(=O)[*:2])N[*:1]; 4Pal = N[C@@H](Cc1ccncc1)C(=O)O; αMeL = CC(C)C[C@](C)(N)C(=O)O; Iva = CC[C@](C)(N)C(=O)O; Orn = NCCC[C@H](N)C(=O)O; AEEA = NCCOCCOCC(=O)O; Aib = CC(C)(N)C(=O)O Bounds are passed on as bounds.

With `CC[C@H](C)[C@H](NC(=O)[C@H](CO)NC(=O)[C@H](Cc1ccc(O)cc1)NC(=O)[C@H](CC(=O)O)NC(=O)[C@H](CO)NC(=O)[C@@H](NC(=O)[C@H](Cc1ccccc1)NC(=O)[C@@H](NC(=O)CNC(=O)[C@H](CCC(=O)O)NC(=O)C(C)(C)NC(=O)[C@@H](N)Cc1ccc(O)cc1)[C@@H](C)O)[C@@H](C)CC)C(=O)N[C@@H](CC(C)C)C(=O)N[C@@H](CC(C)C)C(=O)N[C@@H](CC(=O)O)C(=O)N[C@@H](CCCCN)C(=O)N[C@@H](CCCCNC(=O)COCCOCCNC(=O)COCCOCCNC(=O)CC[C@H](NC(=O)CCCCCCCCCCCCCCCCC(=O)O)C(=O)O)C(=O)N[C@@H](Cc1c[nH]cn1)C(=O)N[C@@H](CCC(N)=O)C(=O)NC(C)(C)C(=O)N[C@@H](CC(=O)O)C(=O)N[C@@H](Cc1ccccc1)C(=O)N[C@H](C(=O)N[C@@H](CC(N)=O)C(=O)N[C@@H](Cc1ccc(O)cc1)C(=O)N[C@@H](CC(C)C)C(=O)N[C@@H](CC(C)C)C(=O)N[C@@H](C)C(=O)N[C@@H](C)C(=O)NCC(=O)N1CCC[C@H]1C(=O)N[C@@H](CO)C(=O)N[C@@H](CO)C(=O)NCC(=O)N[C@@H](C)C(=O)N1CCC[C@H]1C(=O)N1CCC[C@H]1C(=O)N1CCC[C@H]1C(=O)N[C@@H](CO)C(N)=O)C(C)C` [Example 31] (H-Y[Aib]EGTFISDYSILLDKK([AEEA-AEEA-γGlu-C18 diacid])HQ[Aib]DFVNYLLAAGPSSGAPPPS-NH2), the EC50 in experiment [1] is more than 5000 nM; in experiment [2], 1750 nM; in experiment [3], 0.0148 nM.
For `CC[C@H](C)[C@H](NC(=O)[C@H](CC(C)C)NC(=O)[C@@H](NC(=O)CNC(=O)[C@H](CCC(=O)O)NC(=O)C(C)(C)NC(=O)[C@@H](N)Cc1ccc(O)cc1)[C@@H](C)O)C(=O)N[C@@H](CO)C(=O)N[C@@H](CC(=O)O)C(=O)N[C@@H](Cc1ccc(O)cc1)C(=O)N[C@@H](CO)C(=O)N[C@H](C(=O)N[C@@](C)(CC(C)C)C(=O)N[C@@H](CC(C)C)C(=O)N[C@@H](CC(=O)O)C(=O)N[C@@H](CCCCN)C(=O)N[C@@H](CCCCNC(=O)COCCOCCNC(=O)COCCOCCNC(=O)CC[C@H](NC(=O)CCCCCCCCCCCCCCCCCCC(=O)O)C(=O)O)C(=O)N[C@@H](Cc1c[nH]cn1)C(=O)N[C@@H](CCC(N)=O)C(=O)NC(C)(C)C(=O)N[C@@H](CCC(=O)O)C(=O)N[C@@H](Cc1ccccc1)C(=O)N[C@H](C(=O)N[C@@H](CCC(=O)O)C(=O)N[C@@H](Cc1ccc(O)cc1)C(=O)N[C@@H](CC(C)C)C(=O)N[C@@H](CC(C)C)C(=O)N[C@@H](CCC(=O)O)C(=O)NCC(=O)NCC(=O)N1CCC[C@H]1C(=O)N[C@@H](CO)C(=O)N[C@@H](CO)C(=O)NCC(=O)N[C@@H](C)C(=O)N1CCC[C@H]1C(=O)N1CCC[C@H]1C(=O)N1CCC[C@H]1C(=O)N[C@@H](CO)C(N)=O)C(C)C)[C@@H](C)CC` [Example 73] (H-Y[Aib]EGTLISDYSI[αMeL]LDKK([AEEA-AEEA-γGlu-C20 diacid])HQ[Aib]EFVEYLLEGGPSSGAPPPS-NH2), the EC50 in experiment [1] is more than 5000 nM; in experiment [2], more than 5000 nM; in experiment [3], 0.0151 nM.
Regarding `CC[C@H](C)[C@H](NC(=O)[C@H](CO)NC(=O)[C@H](Cc1ccc(O)cc1)NC(=O)[C@H](CC(=O)O)NC(=O)[C@H](CO)NC(=O)[C@@H](NC(=O)[C@](C)(CC)NC(=O)[C@@H](NC(=O)CNC(=O)[C@H](CCC(=O)O)NC(=O)C(C)(C)NC(=O)[C@@H](N)Cc1ccc(O)cc1)[C@@H](C)O)[C@@H](C)CC)C(=O)N[C@@](C)(CC(C)C)C(=O)N[C@@H](CC(C)C)C(=O)N[C@@H](CC(=O)O)C(=O)N[C@@H](CCCCN)C(=O)N[C@@H](CCCCNC(=O)COCCOCCNC(=O)COCCOCCNC(=O)CC[C@H](NC(=O)CCCCCCCCCCCCCCCCCCC(=O)O)C(=O)O)C(=O)N[C@@H](Cc1c[nH]cn1)C(=O)N[C@@H](CCC(N)=O)C(=O)NC(C)(C)C(=O)N[C@@H](CC(=O)O)C(=O)N[C@@H](Cc1ccccc1)C(=O)N[C@H](C(=O)N[C@@H](CCC(=O)O)C(=O)N[C@@H](Cc1ccncc1)C(=O)N[C@@H](CC(C)C)C(=O)N[C@@H](CC(C)C)C(=O)N[C@@H](CCC(=O)O)C(=O)NCC(=O)NCC(=O)N1CCC[C@H]1C(=O)N[C@@H](CO)C(=O)N[C@@H](CO)C(=O)NCC(=O)N[C@@H](C)C(=O)N1CCC[C@H]1C(=O)N1CCC[C@H]1C(=O)N1CCC[C@H]1C(=O)N[C@@H](CO)C(N)=O)C(C)C` [Example 74] (H-Y[Aib]EGT[Iva]ISDYSI[αMeL]LDKK([AEEA-AEEA-γGlu-C20 diacid])HQ[Aib]DFVE[4Pal]LLEGGPSSGAPPPS-NH2), the EC50 was more than 5000 nM in experiment [1], 627 nM in experiment [2] and 0.0167 nM in experiment [3].
Regarding `CC[C@H](C)[C@H](NC(=O)[C@H](CO)NC(=O)[C@H](Cc1ccc(O)cc1)NC(=O)[C@H](CC(=O)O)NC(=O)[C@H](CO)NC(=O)[C@@H](NC(=O)[C@](C)(CC)NC(=O)[C@@H](NC(=O)CNC(=O)[C@H](CCC(=O)O)NC(=O)C(C)(C)NC(=O)[C@@H](N)Cc1ccc(O)cc1)[C@@H](C)O)[C@@H](C)CC)C(=O)N[C@@](C)(CC(C)C)C(=O)N[C@@H](CC(C)C)C(=O)N[C@@H](CC(=O)O)C(=O)N[C@@H](CCCCN)C(=O)N[C@@H](CCCCNC(=O)COCCOCCNC(=O)COCCOCCNC(=O)CC[C@H](NC(=O)CCCCCCCCCCCCCCCCCCC(=O)O)C(=O)O)C(=O)N[C@@H](Cc1c[nH]cn1)C(=O)N[C@@H](CCC(N)=O)C(=O)NC(C)(C)C(=O)N[C@@H](CC(=O)O)C(=O)N[C@@H](Cc1ccccc1)C(=O)N[C@H](C(=O)N[C@@H](CCC(=O)O)C(=O)N[C@@H](Cc1ccncc1)C(=O)N[C@@H](CC(C)C)C(=O)N[C@@H](CC(C)C)C(=O)N[C@@H](CCC(=O)O)C(=O)N[C@H](C(=O)NCC(=O)N1CCC[C@H]1C(=O)N[C@@H](CO)C(=O)N[C@@H](CO)C(=O)NCC(=O)N[C@@H](C)C(=O)N1CCC[C@H]1C(=O)N1CCC[C@H]1C(=O)N1CCC[C@H]1C(=O)N[C@@H](CO)C(N)=O)[C@@H](C)O)C(C)C` [Example 75] (H-Y[Aib]EGT[Iva]ISDYSI[αMeL]LDKK([AEEA-AEEA-γGlu-C20 diacid])HQ[Aib]DFVE[4Pal]LLETGPSSGAPPPS-NH2), the EC50 in experiment [1] is more than 5000 nM; in experiment [2] it was 2170 nM; in experiment [3], 0.0182 nM.
Turning to `CC[C@H](C)[C@H](NC(=O)[C@H](CO)NC(=O)[C@H](Cc1ccc(O)cc1)NC(=O)[C@H](CC(=O)O)NC(=O)[C@H](CO)NC(=O)[C@@H](NC(=O)[C@](C)(CC)NC(=O)[C@@H](NC(=O)CNC(=O)[C@H](CCC(=O)O)NC(=O)C(C)(C)NC(=O)[C@@H](N)Cc1ccc(O)cc1)[C@@H](C)O)[C@@H](C)CC)C(=O)N[C@@](C)(CC(C)C)C(=O)N[C@@H](CC(C)C)C(=O)N[C@@H](CC(=O)O)C(=O)N[C@@H](CCCN)C(=O)N[C@@H](CCCCNC(=O)COCCOCCNC(=O)COCCOCCNC(=O)CC[C@H](NC(=O)CCCCCCCCCCCCCCCCCCC(=O)O)C(=O)O)C(=O)N[C@@H](Cc1c[nH]cn1)C(=O)N[C@@H](CCC(N)=O)C(=O)NC(C)(C)C(=O)N[C@@H](CC(=O)O)C(=O)N[C@@H](Cc1ccccc1)C(=O)N[C@H](C(=O)N[C@@H](CCC(=O)O)C(=O)N[C@@H](Cc1ccncc1)C(=O)N[C@@H](CC(C)C)C(=O)N[C@@H](CC(C)C)C(=O)N[C@@H](CCC(=O)O)C(=O)NCC(=O)NCC(=O)N1CCC[C@H]1C(=O)N[C@@H](CO)C(=O)N[C@@H](CO)C(=O)NCC(=O)N[C@@H](C)C(=O)N1CCC[C@H]1C(=O)N1CCC[C@H]1C(=O)N1CCC[C@H]1C(=O)N[C@@H](CO)C(N)=O)C(C)C` [Example 76] (H-Y[Aib]EGT[Iva]ISDYSI[αMeL]LD[Orn]K([AEEA-AEEA-γGlu-C20 diacid])HQ[Aib]DFVE[4Pal]LLEGGPSSGAPPPS-NH2), the values for the EC50 in experiment [1], in experiment [2] and in experiment [3] were more than 5000 nM, 1200 nM and 0.0154 nM, respectively.
The corresponding values for `CC[C@H](C)[C@H](NC(=O)[C@H](CO)NC(=O)[C@H](Cc1ccc(O)cc1)NC(=O)[C@H](CC(=O)O)NC(=O)[C@H](CO)NC(=O)[C@@H](NC(=O)[C@](C)(CC)NC(=O)[C@@H](NC(=O)CNC(=O)[C@H](CCC(=O)O)NC(=O)C(C)(C)NC(=O)[C@@H](N)Cc1ccc(O)cc1)[C@@H](C)O)[C@@H](C)CC)C(=O)N[C@@](C)(CC(C)C)C(=O)N[C@@H](CC(C)C)C(=O)N[C@@H](CC(=O)O)C(=O)N[C@@H](CCCN)C(=O)N[C@@H](CCCCNC(=O)COCCOCCNC(=O)COCCOCCNC(=O)CC[C@H](NC(=O)CCCCCCCCCCCCCCCCCCC(=O)O)C(=O)O)C(=O)N[C@@H](Cc1c[nH]cn1)C(=O)N[C@@H](CCC(N)=O)C(=O)NC(C)(C)C(=O)N[C@@H](CC(=O)O)C(=O)N[C@@H](Cc1ccccc1)C(=O)N[C@H](C(=O)N[C@@H](CCC(=O)O)C(=O)N[C@@H](Cc1ccncc1)C(=O)N[C@@H](CC(C)C)C(=O)N[C@@H](CC(C)C)C(=O)N[C@@H](CCC(=O)O)C(=O)N[C@H](C(=O)NCC(=O)N1CCC[C@H]1C(=O)N[C@@H](CO)C(=O)N[C@@H](CO)C(=O)NCC(=O)N[C@@H](C)C(=O)N1CCC[C@H]1C(=O)N1CCC[C@H]1C(=O)N1CCC[C@H]1C(=O)N[C@@H](CO)C(N)=O)[C@@H](C)O)C(C)C` [Example 77] (H-Y[Aib]EGT[Iva]ISDYSI[αMeL]LD[Orn]K([AEEA-AEEA-γGlu-C20 diacid])HQ[Aib]DFVE[4Pal]LLETGPSSGAPPPS-NH2) are more than 5000 nM, 2660 nM and 0.0265 nM.

As a reminder, the EC50 is the concentration that produces a half-maximal response.
